Results: patent US5710173A, “Thienyl compounds for inhibition of cell proliferative disorders” (Sugen, Inc., priority 1995, dated 1998)

Legend:
[1] = system: IGF-1R protein tyrosine kinase; conditions: Sepp-Lorenzino et al., Abstract, 1994; cited from earlier work
[2] = system: human breast cancer cells; conditions: Sepp-Lorenzino et al., Abstract, 1994; cited from earlier work
EGFR = target: T1, EGFR (Homo sapiens, UniProt P00533); assay: EGFR Whole Cell Kinase Assay; format: cell-based; conditions: EGFR/C7 NIH3T3 cells, EGF 25 nM; quantity and unit inferred; read-out: ELISA DATA, EGFR
T1 construct: expressed in transfected cells; host or cells: NIH3T3 clone C7 (EGFR/C7)
T1 sequence (P00533 25-1210): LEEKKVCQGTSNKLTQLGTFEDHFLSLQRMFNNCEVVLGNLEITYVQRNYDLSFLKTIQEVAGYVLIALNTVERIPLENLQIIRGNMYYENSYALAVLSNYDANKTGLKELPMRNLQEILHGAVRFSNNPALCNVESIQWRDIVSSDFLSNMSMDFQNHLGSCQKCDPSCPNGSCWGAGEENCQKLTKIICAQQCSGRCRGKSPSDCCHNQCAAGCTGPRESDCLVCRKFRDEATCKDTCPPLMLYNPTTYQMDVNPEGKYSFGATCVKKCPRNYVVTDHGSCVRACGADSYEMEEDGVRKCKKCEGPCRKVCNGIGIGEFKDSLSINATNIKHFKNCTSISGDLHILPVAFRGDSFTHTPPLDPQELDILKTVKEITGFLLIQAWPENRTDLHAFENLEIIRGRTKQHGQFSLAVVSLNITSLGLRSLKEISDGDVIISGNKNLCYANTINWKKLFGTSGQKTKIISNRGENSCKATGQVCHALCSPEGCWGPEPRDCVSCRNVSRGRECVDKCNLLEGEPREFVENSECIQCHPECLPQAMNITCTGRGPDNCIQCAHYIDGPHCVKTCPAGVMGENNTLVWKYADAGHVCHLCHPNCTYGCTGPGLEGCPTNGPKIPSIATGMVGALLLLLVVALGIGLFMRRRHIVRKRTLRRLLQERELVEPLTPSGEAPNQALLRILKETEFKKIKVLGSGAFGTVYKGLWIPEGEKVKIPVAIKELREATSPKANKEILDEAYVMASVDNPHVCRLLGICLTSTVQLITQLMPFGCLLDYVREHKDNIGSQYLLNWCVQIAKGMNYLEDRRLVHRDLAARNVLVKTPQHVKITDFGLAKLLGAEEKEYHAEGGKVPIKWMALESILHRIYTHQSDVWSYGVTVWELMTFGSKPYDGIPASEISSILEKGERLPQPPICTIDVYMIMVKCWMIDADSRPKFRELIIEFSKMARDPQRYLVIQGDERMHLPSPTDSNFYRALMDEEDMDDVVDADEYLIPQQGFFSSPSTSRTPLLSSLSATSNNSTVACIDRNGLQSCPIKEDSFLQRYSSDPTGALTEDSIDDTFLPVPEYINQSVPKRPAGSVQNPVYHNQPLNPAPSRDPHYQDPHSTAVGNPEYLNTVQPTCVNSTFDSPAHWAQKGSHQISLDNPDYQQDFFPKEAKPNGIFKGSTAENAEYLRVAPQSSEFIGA
Source text: The following examples illustrates the ability of the exemplary compounds to inhibit receptor tyrosine kinases, such as HER2 and/or EGFR. The following target cells were used for cellular kinase assays: NIH3T3 clone C7 (Honegger et al., supra) engineered to over-express human EGF receptor; NIH3T3 cells engineered to over-express a chimeric receptor containing the EGFR extracellular domain and the HER2 intracellular kinase domain; the human mammary carcinoma line BT474 (ATCC HTB2) expressing HER2; and the human glioblastoma line U1242 that expresses PDGFR-beta. Growth assays were carried out using human mammary epithelial SKBR3 (ATCC HTB30) cells (SKBR3 cells over-express HER2), SKOV3 (ATCC HTB77) human ovarian cancer cell line (SKOV3 cells also over-express HER2), A431 cells (A431 cells over-express EGFR) MCF7 human breast carcinoma cells, MCF7 cells overexpressing the HER2 kinase (MCF7-HER2), NIH3T3 cells, and NIH3T3 cells overexpressing the HER2 kinase (3T3-HER2.
EGFR Whole Cell Kinase Assay
EGFR kinase activity (EGFR-3T3 assay) in whole cells was measured as described below:
1) EGF Ligand: stock concentration=16.5 μM; EGF 201, TOYOBO, Co., Ltd. Japan.
2) 05-101 (UBI) (a monoclonal antibody recognizing an EGFR extracellular domain).
3) Anti-Phosphotyosine antibody (polyclonal) (made according to Fendley et al., Cancer Research 50:1550-1558, 1990). […]

Row | IC50 (EGFR) [µM] | SMILES | said to inhibit the IGF-1R protein tyrosine kinase [1] | said to inhibit cellular proliferation in human breast cancer cells [2]
1 | – | COC1C=CC=C(C)C(=O)NC2=CC(=O)C=C(C2=O)C(OC)C(C)CC(OC)C(OC)C(C)C=C(C)C1OC(N)=O (stereo not shown) [Herbimycin A] | inhibit | inhibit
2 | > 100 | N#C/C(=C\c1ccc([N+](=O)[O-])s1)S(=O)(=O)c1ccccn1 [Example G772, (E)-3-(2-nitrothien-5-yl)-2-[(pyridin-2-yl)sulfonyl]acrylonitrile] | – | –
3 | > 100 | N#C/C(=C\c1ccc([N+](=O)[O-])s1)S(=O)(=O)c1ccccc1 [Example G771, (E)-3-(2-nitrothien-5-yl)-2-phenylsulfonylacrylonitrile] | – | –
